Results taken from patent publication US8426429B2, “2-amino-quinazoline derivatives useful as inhibitors of β-secretase (BACE)” (Jansssen Pharmaceutica N.V., priority 2004, dated 2013).

Molecular target: T1, β-secretase (BACE) (Homo sapiens, UniProt P56817)
T1 construct: purchased Panvera
Assay: BACE FS1 % Inhibition Assay
Format: biochemical
Summary of the method: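 Percent inhibition per compound concentration was referenced to vehicle-treated enzyme and no-enzyme wells. Enzyme at a 4 μg/mL working stock plus compound was mixed for 20 min at room temperature before the FS1 substrate (300 μg/mL working stock) was added for a 1 h room-temperature reaction.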

T1 sequence (P56817 46-501): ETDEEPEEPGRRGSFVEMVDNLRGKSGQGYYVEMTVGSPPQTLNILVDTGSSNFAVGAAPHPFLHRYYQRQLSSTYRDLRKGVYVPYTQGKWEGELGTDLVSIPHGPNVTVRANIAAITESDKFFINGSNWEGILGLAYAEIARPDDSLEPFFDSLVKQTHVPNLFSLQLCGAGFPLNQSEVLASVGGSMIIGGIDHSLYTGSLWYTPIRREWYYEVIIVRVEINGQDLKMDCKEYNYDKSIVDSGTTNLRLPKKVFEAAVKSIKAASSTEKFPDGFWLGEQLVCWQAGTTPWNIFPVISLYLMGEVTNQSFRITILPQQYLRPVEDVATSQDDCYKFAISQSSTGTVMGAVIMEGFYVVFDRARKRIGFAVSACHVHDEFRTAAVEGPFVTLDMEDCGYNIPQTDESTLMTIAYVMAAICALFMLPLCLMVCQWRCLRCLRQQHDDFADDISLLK

Row | Compound | % Inhibition (FS) (3 μM test compound) [%] | % Inhibition (FS) (10 μM test compound) [%] | % Inhibition (FS) (0.3 μM test compound) [%] | % Inhibition (FS) (1 μM test compound) [%] | % Inhibition (FS) (0.3 μM compound, FS1 substrate) [%] | % Inhibition (FS) (1 μM compound, FS1 substrate) [%] | % Inhibition (FS) (3 μM compound, FS1 substrate) [%]
1 | CCCC(CCC(=O)NC1CCCCCC1)N1Cc2cc(Oc3ccccc3)ccc2N=C1N (stereo not drawn) [Compound 128] | 97 | 108 | – | – | – | – | –
2 | CN(C(=O)c1ncoc1CN1Cc2cc(Oc3ccccc3)ccc2N=C1N)C1CCCCC1 [Compound 641] | 48 | – | <30 | <30 | – | – | –
3 | COc1cccc(OC)c1Oc1ccc2c(c1)CN(CCC(=O)NC1C3CC4CC(C3)CC1C4)C(N)=N2 (stereo not drawn) [Compound 465] | <30 | – | <30 | <30 | – | – | –
4 | COc1cccc(F)c1-c1ccc2c(c1)CN(CCNC(=O)C1CCOCC1)C(N)=N2 [Compound 699] | – | – | – | – | 31 | 64 | 93
5 | CN(C(=O)CCC(C1CCCCC1)N1Cc2cc(Oc3ccccc3)ccc2N=C1N)C1CCC(C(=O)OCc2ccccc2)CC1 (stereo not drawn) [Compound 760] | – | – | – | – | <30 | 44 | 89
6 | COc1ccccc1-c1ccc2c(c1)CN([C@@H](CCC(=O)N(C)Cc1cnn(-c3ccccc3)c1)C1CCCCC1)C(N)=N2 [Compound 717] | – | – | – | – | 33 | 39 | 72
7 | CC(=O)N1CCC(C(=O)NCCN2Cc3cc(C4=CCCCC4)ccc3N=C2N)CC1 [Compound 705] | – | – | – | – | <30 | <30 | <30
8 | CN(C(=O)c1cccc(CN2Cc3cc(OC4CCCC4)ccc3N=C2N)c1)C1CCCCC1 [Compound 520] | 33 | – | <30 | <30 | – | – | –
9 | CCCC(=O)NCCN1Cc2cc(-c3ccc4ccccc4c3)ccc2N=C1N [Compound 666] | – | – | – | – | 37 | <30 | <30
10 | NC1=Nc2ccc(Oc3ccccc3)cc2CN1[C@@H](CCC(=O)N[C@@H](COCc1ccccc1)C(=O)O)C1CCOCC1 [Compound 782] | – | – | – | – | 104 | 107 | 113
11 | CCCCCOc1ccc2c(c1)CN(Cc1cccc(C(=O)N(C)C3CCCCC3)c1)C(N)=N2 [Compound 516] | <30 | – | <30 | <30 | – | – | –
12 | NC1=Nc2ccc(Oc3ccccc3)cc2CN1CCCNC(=O)C1CCC1 [Compound 144] | 39 | 59 | – | – | – | – | –
13 | CN1CCC(N(C)C(=O)c2cccc(C(c3ccccc3)N3Cc4cc(Oc5ccccc5)ccc4N=C3N)c2)CC1 (stereo not drawn) [Compound 316] | <30 | – | <30 | <30 | – | – | –
14 | CCCCC(CC)C(=O)NCCN1Cc2cc(-c3ccccc3F)ccc2N=C1N (stereo not drawn) [Compound 648] | 104 | – | 39 | 74 | – | – | –
15 | CCCN(CC1CC1)C(=O)c1cccc(CN2Cc3cc(Oc4ccccc4)ccc3N=C2N)c1 [Compound 197] | 32 | – | <30 | <30 | – | – | –
16 | NC1=Nc2ccc(-c3ccncc3)cc2CN1CCNC(=O)C1CCCCC1 [Compound 576] | <30 | – | <30 | <30 | – | – | –
17 | NC1=Nc2ccc(Oc3ccccc3)cc2CN1C(CNC(=O)C12CC3CC(CC(C3)C1)C2)C1CCCCC1 (stereo not drawn) [Compound 312] | 115 | – | 74 | 103 | – | – | –
18 | NC1=Nc2ccc(Oc3c(F)cccc3F)cc2CN1CCC(=O)NC1C2CC3CC(C2)CC1C3 (stereo not drawn) [Compound 529] | 66 | – | <30 | <30 | – | – | –
19 | NC1=Nc2ccc(Oc3ccccc3)cc2CN1[C@@H](CCC(=O)N[C@@H](CO)C(=O)O)C1CCOCC1 [Compound 771] | – | – | – | – | 46 | 79 | 105
20 | Cc1ccccc1-c1ccc2c(c1)CN(CCNC(=O)C13CC4CC(CC(C4)C1)C3)C(N)=N2 [Compound 658] | 100 | – | <30 | 62 | – | – | –
21 | COc1cccc(C)c1Oc1ccc2c(c1)CN(Cc1cccc(C(=O)N(C)C3CCCCC3)c1)C(N)=N2 [Compound 468] | <30 | – | <30 | <30 | – | – | –
22 | COc1ccccc1-c1ccc2c(c1)CN(CCNC(=O)CCN)C(N)=N2 [Compound 493] | 49 | – | <30 | <30 | – | – | –
23 | Cc1ccccc1-c1ccc2c(c1)CN(CCNC(=O)CCC(C)C)C(N)=N2 [Compound 661] | – | – | – | – | 68 | 98 | –
